{"source": "patent US7195778B2", "about": "“Drug delivery system for zero order, zero order-biphasic, ascending or descending drug delivery” (Teva Pharmaceutical Industries Ltd., priority 2001, dated 2007)", "origin": "cited, not measured here", "note": "Structures can show the parent of a compound that is named as a salt. Where two headings read alike, the source gives them in different places."}
{"smiles": "COC(=O)C(c1ccccc1)C1CCCCN1", "note": "(stereo not shown) [methylphenidate HCl]", "values": [{"measurement": "drug excreted", "setting": "adults", "value": 80, "unit": "%"}, {"measurement": "drug excreted", "setting": "children", "value": 67, "unit": "%"}, {"measurement": "time to peak", "setting": "children, immediate release", "value": 1.9, "unit": "h"}, {"measurement": "time to peak, range", "setting": "children, immediate release", "value": "0.3 to 4.4", "unit": "h"}, {"measurement": "primary adverse events", "setting": "chronic dosing", "value": "nervousness, insomnia and appetite suppression"}, {"measurement": "pharmacokinetic half-life", "setting": "immediate release", "value": "2 to 3", "unit": "h"}, {"measurement": "AD/HD patients responding positively", "setting": "reports", "value": "70–90%"}]}
